Assays:
[1] = system: HT-29 (colon adenocarcinoma); assay: MTT cell viability assay, HT-29; assay type: cell-based; settings: Homo sapiens, HT-29, 48 h, 2 days incubation, average ±SD of three experiments
Method: (§1) The effects of triazole derivatives 1–26 on the cell viability were determined by MTT assay, and the IC50 values were determined toward the human tumor cell lines HT-29 (colon adenocarcinoma), A-549 (lung adenocarcinoma), and MCF-7 (breast adenocarcinoma), as well as toward the non-tumor cell line HEK-293 (human embryonic kidney cells).
(§2) In 96-well plates, 3 × 10^3 (A549 and HEK-293) or 5 × 10^3 (HT-29, MCF-7) cells per well were incubated with serial dilutions of the tested compounds in a total volume of 100 μL of their growth media. The 3-(4,5-dimethylthiazol-2-yl)-2,5-diphenyltetrazolium bromide (MTT; Sigma Chemical Co.) dye reduction assay in 96-well microplates was used. After 2 days of incubation (37 °C, 5% CO2 in a humid atmosphere), 10 μL of MTT (5 mg/mL in phosphate-buffered saline, PBS) was added to each well, and the plate was incubated for a further 3 h (37 °C). After that, the supernatant was discarded and replaced by 100 µL of DMSO to dissolve formazan crystals. The absorbance was then read at 550 nm by spectro-photometry. For all concentrations of compound, cell viability was expressed as the percentage of the ratio between the mean absorbance of treated cells and the mean absorbance of untreated cells. Three independent experiments were performed, and the IC50 values (i.e., concentration half inhibiting cell proliferation) were graphically determined by using GraphPad Prism 4 software (2019).

[2] = system: A-549 (lung adenocarcinoma); assay: MTT cell viability assay, A-549; assay type: cell-based; settings: Homo sapiens, A549, 48 h, 2 days incubation, average ±SD of three experiments
Method: as §1, §2

[3] = system: MCF-7 (breast adenocarcinoma); assay: MTT cell viability assay, MCF-7; assay type: cell-based; settings: Homo sapiens, MCF7, 48 h, 2 days incubation, average ±SD of three experiments
Method: as §1, §2

[4] = system: HEK-293 (human embryonic kidney cells); assay: MTT cell viability assay, HEK-293; assay type: cell-based; settings: HEK293, 48 h, 2 days incubation, non-tumor cell line, average ±SD of three experiments
Method: as §1, §2

total PD-L1 (tPD-L1) = biological target: T1, total PD-L1 (tPD-L1) (Homo sapiens, UniProt Q9NZQ7); assay: Total PD-L1 relative quantification by flow cytometry; assay type: cell-based; settings: for tPD-L1 relative detection, A-549 / tPD-L1 relative detection, HT-29 / tPD-L1 relative detection, MCF-7: 24 h, 100 or 10 μM (Table 7), relative to DMSO control
T1 construct: endogenous in cells; host or cells: HT-29, A-549, MCF-7
Method: The study was carried out again on HT-29, A-549, and MCF-7 cell lines by flow cytometry after 24 h of treatment with the corresponding compounds. The presence of the targets in the whole cell were relatively determined by using DMSO-treated cells as a negative control and BMS-8 as a positive one for PD-L1 (Table 3).
To study the effect of the compounds on every biological target in cancer cell lines the compounds were used at a 100 or 10 μM dose, depending on their IC50 and the treated cell line.
For the assay, 10^5 cells per well were incubated for 24 h with the corresponding dose of the tested compound in a total volume of 500 μL of their growth media.
For the detection of total PD-L1, VEGFR-2, and c-Myc, the procedure was the same as for membrane targets, but after fixation, a treatment with 0,5% in PBS TritonTM X-100 was performed. The antibodies used for PD-L1 and VEGFR-2 were the ones previously described, and for the detection of c-Myc, it was FITC Rabbit monoclonal anti-c-Myc (ab223913).

VEGFR-2 kinase activity = assay: ADP assay of kinase activity in HT-29 cells; assay type: cell-based, human; settings: 100 μM, 24 h; DMSO as negative control
Method: Finally, to assess the VEGFR-2 inhibitory activity of the selected compounds, namely 21, 22, and 23, we performed an ADP assay. This is a very useful technique that measures kinase activity by monitoring ADP accumulation in cell cultures instead of ATP concentrations.
For the assay, we used HT-29 cells that were previously treated with a 100 μM concentration of 21, 22, and 23, and we used DMSO as a negative control.
The kinase inhibitory activity of the selected compounds was studied as follows: first 10^5 HT-29 cells were seeded on a 12 well-plate, and then they were treated with 100 μM of the selected compounds for 24 h. Afterward, cells were collected, and the kinase activity was determined from collected pellets by following the manufacturer’s instructions indicated in the ADP Colorimetric Assay Kit II (Abcam S.A. reference ab282932).

HMEC-1 cells [5] = assay: Tube disruption on Matrigel (antivascular activity); assay type: cell-based; settings: 100 μM added to 24 h networks, observed after another 24 h
Method: The antivascular and antiangiogenic activities of the selected compounds, namely 21, 22, and 23, were settled by 3D Matrigel cell cultures. First, we studied the effect on a microvessel network from HMEC-1 cells. HMEC-1 cells were on Matrigel, and after 24 h, when organized capillary networks were formed, 100 μM of the corresponding compounds, 21–23, was added. After another 24 h, we compared the treated networks with the one that received no treatment (see Figure 5a–c).
(§3) Wells of a IBIDI 15-well μ-plate for angiogenesis were coated with 15 μL of Matrigel® (10 mg/mL, BD Biosciences Europe) at 4 °C. After gelatinization at 37 °C for 30 min, HMEC-1 cells were seeded at 2 × 10^4 cells/well in 25 μL of culture medium on top of the Matrigel and were incubated for 30 min at 37 °C while they were attached.
For the tube disruption assay (study of antivascular activity), after 24 h, we checked that the capillary networks were formed on wells, and then 100 μM of compounds was added. After 24 h of treatment, the cultures were observed again, and pictures of each well were taken.

HMEC-1 cells [6] = assay: Tube formation on Matrigel (antiangiogenic activity); assay type: cell-based; settings: 100 μM, 24 h
Method: Then we went on to study the effect of these selected compounds on the formation of new capillary networks. Again, HMEC-1 cells were seeded on Matrigel and treated with compounds 21, 22, and 23 at 100 μM. After 24 h of the corresponding treatments, we compared the cultures with non-treated cells, and the results are depicted in Figure 5d–f.
as §3
For the tube-formation assay (study of antiangiogenic activity), 100 μM of compounds was added 20 min after seeding HMEC-1 on Matrigel.

T1 sequence (Q9NZQ7 19-290): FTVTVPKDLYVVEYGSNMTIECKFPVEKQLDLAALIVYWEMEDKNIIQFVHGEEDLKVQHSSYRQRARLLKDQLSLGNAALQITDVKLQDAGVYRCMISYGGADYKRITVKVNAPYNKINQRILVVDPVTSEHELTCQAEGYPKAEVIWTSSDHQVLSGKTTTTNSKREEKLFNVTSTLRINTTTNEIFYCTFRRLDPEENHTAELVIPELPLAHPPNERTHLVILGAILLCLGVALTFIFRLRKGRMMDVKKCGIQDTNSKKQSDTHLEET

IC50 [1] | IC50 [2] | IC50 [3] | tPD-L1 relative detection, A-549 (total PD-L1 (tPD-L1)) | tPD-L1 relative detection, HT-29 (total PD-L1 (tPD-L1)) | tPD-L1 relative detection, MCF-7 (total PD-L1 (tPD-L1)) | melting point | Inhibition of total PD-L1, MCF-7 (total PD-L1 (tPD-L1)) | Compound | IC50 [4] | Kinase activity measured in HT-29 cell cultures (VEGFR-2 kinase activity) | Antivascular effect on formed HMEC-1 capillary networks (HMEC-1 cells [5]) | Antiangiogenic effect on formation of new HMEC-1 capillary networks (HMEC-1 cells [6])
> 100 µM | > 100 µM | 11 ± 2 µM | 78 ± 9% | 60 ± 6% | >100% | 112 to 115 °C | – | Nc1ccc(-c2cn(Cc3ccccc3Cl)nn2)cc1 [Compound 21, 4-(1-(2-chlorobenzyl)-1H-1,2,3-triazol-4-yl)aniline] | > 100 µM | 46 ± 10% | disturbance of the formed microvasculature-like network | interfered with the formation of new microvessel networks
> 100 µM | > 100 µM | 8 ± 2 µM | 75 ± 10% | 52 ± 7% | 69 ± 7% | 143 to 144 °C | around 40% | Nc1ccc(-c2cn(Cc3cccc(Cl)c3)nn2)cc1 [Compound 22, 4-(1-(3-chlorobenzyl)-1H-1,2,3-triazol-4-yl)aniline] | > 100 µM | 33 ± 4% | disturbance of the formed microvasculature-like network | interfered with the formation of new microvessel networks
> 100 µM | > 100 µM | 9 ± 6 µM | 81 ± 15% | 52 ± 3% | 61 ± 14% | 164 to 166 °C | around 40% | Nc1ccc(-c2cn(Cc3ccc(Cl)cc3)nn2)cc1 [Compound 23, 4-(1-(4-chlorobenzyl)-1H-1,2,3-triazol-4-yl)aniline] | > 100 µM | 31 ± 8% | disturbance of the formed microvasculature-like network | interfered with the formation of new microvessel networks
